Data reported in BindingDB's records for doi:10.1016/s0960-894x(99)00041-4 (1999).
Numbered stars: 1 amine (or outer) side, 2 acyl side, 3 side chain; on linkers, the order of the positions; unused ones are H or OH. Bridge positions count the residues as written; N and C are the ends. Square brackets hold non-standard residues; d marks the D form. Peptide text beside a SMILES is read from it. X1 = O=C([C@@]1(N[*:1])CCc2ccccc2C1)[*:2]; Atc(2S) = N[C@@]1(C(=O)O)CCc2ccccc2C1; Mpa = O=C(O)CCS; Sar = CNCC(=O)O

Target: Oxytocin receptor (Cavia porcellus)
Test: Compound was evaluated for its dissociation constant (Kd) to guinea pig myometrial Oxytocin receptor

| Structure (SMILES) | Kd [nM] |
| --- | --- |
| CC[C@H](C)[C@@H]1NC(=O)[C@@]2(CCc3ccccc3C2)NC(=O)CCSSC[C@@H](C(=O)N(C)CC(=O)N[C@@H](CCCN=C(N)N)C(=O)NCC(N)=O)NC(=O)[C@H](CC(N)=O)NC(=O)[C@H](CCC(N)=O)NC1=O ([Mpa][Atc(2S)]IQNC[Sar]RG-NH2; disulfide 1-6) | 370 |
| CC[C@H](C)[C@@H]1NC(=O)[C@]2(CCc3ccccc3C2)NC(=O)CCSSC[C@@H](C(=O)N(C)CC(=O)N[C@@H](CCCN=C(N)N)C(=O)NCC(N)=O)NC(=O)[C@H](CC(N)=O)NC(=O)[C@H](CCC(N)=O)NC1=O ([Mpa][X1]IQNC[Sar]RG-NH2; disulfide 1-6) | 1920 |
| CC[C@H](C)[C@@H]1NC(=O)[C@@H](Cc2c[nH]c3ccccc23)NC(=O)CCSSC[C@@H](C(=O)N(C)CC(=O)N[C@@H](CCCNC(=N)N)C(=O)NCC(N)=O)NC(=O)[C@H](CC(N)=O)NC(=O)[C@H](CCC(N)=O)NC1=O [Mpa-D-Trp-lle-Gln-Asn-Cys-Sar-Arg-Gly-NH2] | 38 |
